Source: ChEMBL document CHEMBL5303573, “Mapping human microbiome drug metabolism by gut bacteria and their genes” (Nature, 2019)

How the values were obtained:
[1] = segatella copri, 12 h, 2 µM
Description: The drug is tested on Prevotella copri strain: DSM18205 for biotransformation. The drug concentrations were measured before and after a 12-h incubation by liquid-chromatography-coupled mass spectrometry (LC–MS)

[2] = bacteroides fragilis, 12 h, 2 µM
Description: The drug is tested on Bacteroides fragilis strain: NCTC 9343 for biotransformation. The drug concentrations were measured before and after a 12-h incubation by liquid-chromatography-coupled mass spectrometry (LC–MS)

[3] = parabacteroides distasonis, 12 h, 2 µM
Description: The drug is tested on Parabacteroides distasonis strain: ATCC8503 for biotransformation. The drug concentrations were measured before and after a 12-h incubation by liquid-chromatography-coupled mass spectrometry (LC–MS)

[4] = bacteroides thetaiotaomicron, 12 h, 2 µM
Description: The drug is tested on Bacteroides thetaiotaomicron strain: 7330 for biotransformation. The drug concentrations were measured before and after a 12-h incubation by liquid-chromatography-coupled mass spectrometry (LC–MS)

[5] = The drug is tested on Anaerotruncus colihominis strain: DSM17241 for biotransformation. The drug concentrations were measured before and after a 12-h incubation by liquid-chromatography-coupled mass spectrometry (LC–MS); conditions: 2 µM
[6] = The drug is tested on Bifidobacterium ruminantium strain: fecal isolate for biotransformation. The drug concentrations were measured before and after a 12-h incubation by liquid-chromatography-coupled mass spectrometry (LC–MS); conditions: 2 µM
[7] = roseburia intestinalis, 12 h, 2 µM
Description: The drug is tested on Roseburia intestinalis strain: L1-82 for biotransformation. The drug concentrations were measured before and after a 12-h incubation by liquid-chromatography-coupled mass spectrometry (LC–MS)

[8] = The drug is tested on Bacteroides finegoldii strain: DSM17565 for biotransformation. The drug concentrations were measured before and after a 12-h incubation by liquid-chromatography-coupled mass spectrometry (LC–MS); conditions: 2 µM
[9] = The drug is tested on Coprococcus comes strain: ATCC27758 for biotransformation. The drug concentrations were measured before and after a 12-h incubation by liquid-chromatography-coupled mass spectrometry (LC–MS); type: ADME; design: dose 2 uM, timepoint 0 vs 12 hours; conditions: 2 µM
[10] = The drug is tested on Blautia luti strain: DSM14534 for biotransformation. The drug concentrations were measured before and after a 12-h incubation by liquid-chromatography-coupled mass spectrometry (LC–MS); type: ADME; design: dose 2 uM, timepoint 0 vs 12 hours; conditions: 2 µM
[11] = bifidobacterium adolescentis, 12 h, 2 µM
Description: The drug is tested on Bifidobacterium adolescentis strain: ATCC 15703 for biotransformation. The drug concentrations were measured before and after a 12-h incubation by liquid-chromatography-coupled mass spectrometry (LC–MS)

[12] = The drug is tested on Clostridium scindens strain: ATCC35704 for biotransformation. The drug concentrations were measured before and after a 12-h incubation by liquid-chromatography-coupled mass spectrometry (LC–MS); conditions: 2 µM
[13] = The drug is tested on Anaerococcus hydrogenalis strain: DSM7454 for biotransformation. The drug concentrations were measured before and after a 12-h incubation by liquid-chromatography-coupled mass spectrometry (LC–MS); conditions: 2 µM
[14] = limosilactobacillus reuteri cf48-3a, 12 h, 2 µM
Description: The drug is tested on Lactobacillus reuteri CF48-3A strain: BEI HM-102 for biotransformation. The drug concentrations were measured before and after a 12-h incubation by liquid-chromatography-coupled mass spectrometry (LC–MS)

[15] = The drug is tested on Enterococcus faecalis strain: V583 for biotransformation. The drug concentrations were measured before and after a 12-h incubation by liquid-chromatography-coupled mass spectrometry (LC–MS); conditions: 2 µM
[16] = The drug is tested on Bacteroides caccae strain: ATCC43185 for biotransformation. The drug concentrations were measured before and after a 12-h incubation by liquid-chromatography-coupled mass spectrometry (LC–MS); conditions: 2 µM
[17] = The drug is tested on Edwardsiella tarda strain: ATCC23685 for biotransformation. The drug concentrations were measured before and after a 12-h incubation by liquid-chromatography-coupled mass spectrometry (LC–MS); conditions: 2 µM
[18] = The drug is tested on Bifidobacterium breve strain: DSM20213 for biotransformation. The drug concentrations were measured before and after a 12-h incubation by liquid-chromatography-coupled mass spectrometry (LC–MS); conditions: 2 µM
[19] = The drug is tested on Eubacterium hallii strain: DSM3353 for biotransformation. The drug concentrations were measured before and after a 12-h incubation by liquid-chromatography-coupled mass spectrometry (LC–MS); conditions: anaerobutyricum hallii, 2 µM
[20] = The drug is tested on Ruminococcus lactaris strain: ATCC29176 for biotransformation. The drug concentrations were measured before and after a 12-h incubation by liquid-chromatography-coupled mass spectrometry (LC–MS); conditions: 2 µM

| SMILES | Bacterial Biotransformation [1] | Bacterial Biotransformation [2] | Bacterial Biotransformation [3] | Bacterial Biotransformation [4] | Bacterial Biotransformation [5] | Bacterial Biotransformation [6] | Bacterial Biotransformation [7] | Bacterial Biotransformation [8] | Bacterial Biotransformation [9] | Bacterial Biotransformation [10] | Bacterial Biotransformation [11] | Bacterial Biotransformation [12] | Bacterial Biotransformation [13] | Bacterial Biotransformation [14] | Bacterial Biotransformation [15] | Bacterial Biotransformation [16] | Bacterial Biotransformation [17] | Bacterial Biotransformation [18] | Bacterial Biotransformation [19] | Bacterial Biotransformation [20] |
| --- | --- | --- | --- | --- | --- | --- | --- | --- | --- | --- | --- | --- | --- | --- | --- | --- | --- | --- | --- | --- |
| CC(N)C12CC3CC(CC(C3)C1)C2 (stereo not given) [RIMANTADINE] | Compound NOT metabolized | Compound NOT metabolized | Compound NOT metabolized | Compound NOT metabolized | Compound NOT metabolized | Compound NOT metabolized | Compound NOT metabolized | Compound NOT metabolized | Compound NOT metabolized | Compound NOT metabolized | Compound NOT metabolized | Compound NOT metabolized | Compound NOT metabolized | Compound NOT metabolized | Compound NOT metabolized | Compound NOT metabolized | Compound NOT metabolized | Compound NOT metabolized | Compound NOT metabolized | Compound NOT metabolized |
| CC1=C(CC(=O)O)c2cc(F)ccc2/C1=C\c1ccc([S+](C)[O-])cc1 (stereo not given) | Compound NOT metabolized | Compound NOT metabolized | Compound NOT metabolized | Compound NOT metabolized | Compound NOT metabolized | Compound NOT metabolized | Compound NOT metabolized | Compound NOT metabolized | Compound NOT metabolized | Compound NOT metabolized | Compound NOT metabolized | Compound NOT metabolized | Compound NOT metabolized | Compound NOT metabolized | Compound NOT metabolized | – | Compound NOT metabolized | Compound NOT metabolized | Compound NOT metabolized | Compound NOT metabolized |
| CN1[C@@H]2CC[C@H]1C[C@@H](OC(=O)c1c[nH]c3ccccc13)C2 [TROPISETRON] | Compound NOT metabolized | Compound NOT metabolized | Compound NOT metabolized | Compound NOT metabolized | Compound NOT metabolized | Compound NOT metabolized | Compound NOT metabolized | Compound NOT metabolized | Compound NOT metabolized | Compound NOT metabolized | Compound NOT metabolized | Compound NOT metabolized | Compound NOT metabolized | Compound NOT metabolized | – | Compound NOT metabolized | Compound NOT metabolized | Compound NOT metabolized | Compound NOT metabolized | Compound NOT metabolized |
| O=c1[nH]c2ccccc2n1C1CCN(CCCC(c2ccc(F)cc2)c2ccc(F)cc2)CC1 [PIMOZIDE] | Compound NOT metabolized | Compound NOT metabolized | Compound metabolized | Compound NOT metabolized | Compound metabolized | Compound NOT metabolized | Compound NOT metabolized | Compound NOT metabolized | Compound NOT metabolized | Compound NOT metabolized | Compound NOT metabolized | – | Compound NOT metabolized | Compound NOT metabolized | Compound NOT metabolized | Compound NOT metabolized | Compound NOT metabolized | Compound NOT metabolized | Compound NOT metabolized | Compound NOT metabolized |
| O=C1C(CC[S+]([O-])c2ccccc2)C(=O)N(c2ccccc2)N1c1ccccc1 (stereo not given) [SULFINPYRAZONE] | Compound NOT metabolized | Compound metabolized | Compound NOT metabolized | Compound NOT metabolized | Compound NOT metabolized | Compound NOT metabolized | Compound NOT metabolized | Compound NOT metabolized | Compound NOT metabolized | Compound NOT metabolized | Compound NOT metabolized | – | Compound NOT metabolized | Compound NOT metabolized | Compound NOT metabolized | Compound NOT metabolized | Compound NOT metabolized | Compound NOT metabolized | Compound NOT metabolized | Compound NOT metabolized |
| CC[C@@]1(O)C(=O)OCc2c1cc1n(c2=O)Cc2cc3c(CN(C)C)c(O)ccc3nc2-1 [TOPOTECAN] | Compound NOT metabolized | Compound NOT metabolized | Compound NOT metabolized | Compound NOT metabolized | Compound NOT metabolized | Compound NOT metabolized | Compound NOT metabolized | Compound NOT metabolized | Compound NOT metabolized | Compound NOT metabolized | Compound NOT metabolized | Compound NOT metabolized | Compound NOT metabolized | Compound NOT metabolized | – | Compound NOT metabolized | Compound NOT metabolized | Compound NOT metabolized | Compound NOT metabolized | Compound NOT metabolized |
| CS(=O)(=O)O.O.O.O.O=C1Cc2cc(CCN3CCN(c4nsc5ccccc45)CC3)c(Cl)cc2N1 [ZIPRASIDONE MESYLATE] | Compound NOT metabolized | Compound NOT metabolized | Compound metabolized | Compound NOT metabolized | – | Compound NOT metabolized | Compound NOT metabolized | Compound NOT metabolized | Compound NOT metabolized | Compound NOT metabolized | – | Compound NOT metabolized | Compound NOT metabolized | Compound NOT metabolized | Compound NOT metabolized | Compound NOT metabolized | Compound NOT metabolized | Compound NOT metabolized | – | Compound NOT metabolized |
| C=CC[C@@H]1/C=C(\C)C[C@H](C)C[C@H](OC)[C@H]2O[C@@](O)(C(=O)C(=O)N3CCCC[C@H]3C(=O)O[C@H](/C(C)=C/[C@@H]3CC[C@@H](O)[C@H](OC)C3)[C@H](C)[C@@H](O)CC1=O)[C@H](C)C[C@@H]2OC.O [TACROLIMUS] | Compound NOT metabolized | Compound metabolized | Compound metabolized | Compound NOT metabolized | Compound metabolized | Compound NOT metabolized | Compound metabolized | Compound metabolized | Compound metabolized | Compound metabolized | Compound NOT metabolized | Compound metabolized | Compound metabolized | Compound metabolized | – | – | Compound NOT metabolized | Compound NOT metabolized | Compound metabolized | Compound metabolized |
